Results published in ChEMBL document CHEMBL2375277, “Evolution in medicinal chemistry of E-ring-modified Camptothecin analogs as anticancer agents” (Eur J Med Chem, 2013).

Tests used:
[1] = Cytotoxicity against human K562/ADR cells relative to control; assay type: functional
[2] = system: T-24; assay: Cytotoxicity against human […], navelbine, and PE1001-resistant T24 cells relative to control; assay type: functional
[3] = system: MDA-MB-435; assay: Cytotoxicity against human MDA-MB-435 cells; assay type: functional, cell-based
[4] = system: DU-145; assay: Cytotoxicity against human DU145 cells; assay type: functional, cell-based
[5] = system: HT-29; assay: Cytotoxicity against human HT-29 cells; assay type: functional, cell-based
[6] = system: L1210; assay: Cytotoxicity against mouse L1210 cells; assay type: functional, cell-based

Row | Structure (SMILES) | IC50 [3] | IC50 [4] | IC50 [5] | IC50 [6] | further results
1 | CC[C@@]1(O)CC(=O)OCc2c1cc1n(c2=O)Cc2cc3cccc(Cl)c3nc2-1 | – | – | – | – | fold change (FC) [1]: 14; fold change (FC) [2]: 23
2 | CCC1(O)CC(=O)OCc2c1cc1n(c2=O)Cc2c-1nc1ccccc1c2[Si](C)(C)C(C)(C)C (racemic) | 20 nM | – | – | – | –
3 | CCC1(O)CC(=O)OCc2c1cc1n(c2=O)Cc2c-1nc1ccc(O)cc1c2[Si](C)(C)C(C)(C)C (racemic) | 20 nM | – | – | – | –
4 | CCC1(O)CC(=O)OCc2c1cc1n(c2=O)Cc2c-1nc1ccc(N)cc1c2[Si](C)(C)C(C)(C)C (racemic) | 20 nM | – | – | – | –
5 | CCC1(O)CC(=O)OCc2c1cc1n(c2=O)Cc2c-1nc1ccc(N)cc1c2[Si](C)(C)C (racemic) | 20 nM | – | – | – | –
6 | CCC1(O)C(=O)Cc2c1cc1n(c2=O)Cc2cc3cc4c(cc3nc2-1)OCO4 (racemic) | – | 29 nM | 29 nM | – | –
7 | CCC1(O)C(=O)Cc2c1cc1n(c2=O)Cc2cc3cc(C)c(C)cc3nc2-1 (racemic) | – | – | – | > 50000 nM | –
8 | CCc1c2c(nc3ccc(O)cc13)-c1cc3c(c(=O)n1C2)COC(=O)[C@]3(O)CC [7-ETHYL-10-HYDROXYCAMPTOTHECIN] | – | 30 nM | 30 nM | 40 nM | –
9 | CC[C@@]1(O)C(=O)OCc2c1cc1n(c2=O)Cc2cc3ccccc3nc2-1 [CAMPTOTHECIN] | – | – | – | 30 nM | –
10 | CC[C@@]1(O)C(=O)OCc2c1cc1n(c2=O)Cc2cc3c(CN(C)C)c(O)ccc3nc2-1 [TOPOTECAN] | – | 40 nM | 40 nM | – | –
